Reference: paper PMC6934184, “Selective DNA-PKcs inhibition extends the therapeutic index of localized radiotherapy and chemotherapy” (The Journal of Clinical Investigation, 2019)

Target: T1, FGFR1 V561M (Homo sapiens, UniProt P11362, V561M)
T1 construct: purchased Thermo Fisher Scientific (Life Technologies) SelectScreen
Experiment: SelectScreen LanthaScreen
Type: binding
Conditions: read-out: % displacement
Method in brief: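 NU5455 was profiled across the SelectScreen Broad panel of kinase activity and binding assays. Z'LYTE reactions such as CSF1R ran at apparent Km ATP, while the Adapta CAMK1 assay used ATP listed as 10. Values are given as percent.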

T1 sequence (P11362 22-822 V561M): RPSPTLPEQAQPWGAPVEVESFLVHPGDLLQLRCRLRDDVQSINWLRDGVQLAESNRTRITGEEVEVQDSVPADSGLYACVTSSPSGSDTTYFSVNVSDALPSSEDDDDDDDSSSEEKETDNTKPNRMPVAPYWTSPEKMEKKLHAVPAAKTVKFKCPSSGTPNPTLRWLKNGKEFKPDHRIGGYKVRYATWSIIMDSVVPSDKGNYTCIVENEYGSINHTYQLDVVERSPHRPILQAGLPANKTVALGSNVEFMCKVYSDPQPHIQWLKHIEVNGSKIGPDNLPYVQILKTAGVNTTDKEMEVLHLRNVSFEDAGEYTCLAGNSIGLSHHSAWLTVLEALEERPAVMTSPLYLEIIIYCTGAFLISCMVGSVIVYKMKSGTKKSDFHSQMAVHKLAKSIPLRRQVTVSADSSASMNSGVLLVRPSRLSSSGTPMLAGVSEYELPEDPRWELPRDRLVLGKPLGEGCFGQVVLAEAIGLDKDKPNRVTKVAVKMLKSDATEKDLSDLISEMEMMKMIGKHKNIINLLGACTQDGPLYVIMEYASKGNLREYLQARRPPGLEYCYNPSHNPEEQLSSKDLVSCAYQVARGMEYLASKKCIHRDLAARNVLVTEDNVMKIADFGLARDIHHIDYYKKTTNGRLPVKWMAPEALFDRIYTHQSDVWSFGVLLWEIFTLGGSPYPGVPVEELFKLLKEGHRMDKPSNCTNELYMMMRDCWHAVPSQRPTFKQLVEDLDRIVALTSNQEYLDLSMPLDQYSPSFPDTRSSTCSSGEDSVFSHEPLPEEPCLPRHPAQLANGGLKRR

With `CN(C(=O)CN1CCOCC1)c1ccc2sc3c(-c4cccc5c(=O)cc(N6CC7CCC(C6)O7)oc45)cccc3c2c1` [NU5455] as the compound, how does the inhibition at 1 µM read?
The inhibition at 1 µM was 5.1%.
